Test results taken from ChEMBL document CHEMBL3217752, “Small molecules targeting phosphoinositide 3-kinases” (Medchemcomm, 2012).
One block for each compound: values may come before it.

Columns and labels:
[1] = target: T1, Phosphatidylinositol 4,5-bisphosphate 3-kinase catalytic subunit beta isoform (Homo sapiens, UniProt P42338)
[2] = target: T2, Phosphatidylinositol 4,5-bisphosphate 3-kinase catalytic subunit gamma isoform (Homo sapiens, UniProt P48736)
[3] = target: DNA-dependent protein kinase catalytic subunit (Homo sapiens, UniProt P78527)
[4] = target: T2, Phosphatidylinositol 4,5-bisphosphate 3-kinase catalytic subunit gamma isoform; remark: listed apart in the source
[5] = target: T3, Phosphatidylinositol 4,5-bisphosphate 3-kinase catalytic subunit alpha isoform (Homo sapiens, UniProt P42336)
T3 sequence (P42336 whole entry, canonical isoform): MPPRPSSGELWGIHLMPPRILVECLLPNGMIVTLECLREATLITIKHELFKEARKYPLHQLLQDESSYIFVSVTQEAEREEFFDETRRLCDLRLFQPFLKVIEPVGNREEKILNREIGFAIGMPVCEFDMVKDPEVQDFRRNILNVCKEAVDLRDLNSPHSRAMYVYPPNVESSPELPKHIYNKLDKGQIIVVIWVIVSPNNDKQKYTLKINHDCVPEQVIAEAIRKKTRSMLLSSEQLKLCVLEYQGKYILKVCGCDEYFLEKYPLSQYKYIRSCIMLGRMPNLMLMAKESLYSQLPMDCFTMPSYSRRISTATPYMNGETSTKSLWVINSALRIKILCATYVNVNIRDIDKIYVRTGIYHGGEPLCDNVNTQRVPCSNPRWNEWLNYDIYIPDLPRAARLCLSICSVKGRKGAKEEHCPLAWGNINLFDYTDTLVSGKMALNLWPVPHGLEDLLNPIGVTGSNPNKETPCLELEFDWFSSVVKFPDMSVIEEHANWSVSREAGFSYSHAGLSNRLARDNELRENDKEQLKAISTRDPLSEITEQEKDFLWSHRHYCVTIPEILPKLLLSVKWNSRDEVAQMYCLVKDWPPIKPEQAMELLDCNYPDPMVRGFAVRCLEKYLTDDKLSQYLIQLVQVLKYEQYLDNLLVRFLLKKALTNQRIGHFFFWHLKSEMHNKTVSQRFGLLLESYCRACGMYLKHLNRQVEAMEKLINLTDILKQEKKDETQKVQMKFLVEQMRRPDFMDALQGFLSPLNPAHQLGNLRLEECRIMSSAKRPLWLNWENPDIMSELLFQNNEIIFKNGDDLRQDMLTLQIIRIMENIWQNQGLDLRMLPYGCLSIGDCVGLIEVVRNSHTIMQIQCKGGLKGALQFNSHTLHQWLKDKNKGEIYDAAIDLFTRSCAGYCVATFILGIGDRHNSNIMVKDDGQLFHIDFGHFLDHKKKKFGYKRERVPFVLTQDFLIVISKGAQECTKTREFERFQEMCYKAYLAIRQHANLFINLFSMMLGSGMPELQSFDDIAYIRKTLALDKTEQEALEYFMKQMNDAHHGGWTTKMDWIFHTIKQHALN

[6] = target: T4, Phosphatidylinositol 4,5-bisphosphate 3-kinase catalytic subunit delta isoform (Homo sapiens, UniProt O00329)
T4 sequence (O00329 whole entry): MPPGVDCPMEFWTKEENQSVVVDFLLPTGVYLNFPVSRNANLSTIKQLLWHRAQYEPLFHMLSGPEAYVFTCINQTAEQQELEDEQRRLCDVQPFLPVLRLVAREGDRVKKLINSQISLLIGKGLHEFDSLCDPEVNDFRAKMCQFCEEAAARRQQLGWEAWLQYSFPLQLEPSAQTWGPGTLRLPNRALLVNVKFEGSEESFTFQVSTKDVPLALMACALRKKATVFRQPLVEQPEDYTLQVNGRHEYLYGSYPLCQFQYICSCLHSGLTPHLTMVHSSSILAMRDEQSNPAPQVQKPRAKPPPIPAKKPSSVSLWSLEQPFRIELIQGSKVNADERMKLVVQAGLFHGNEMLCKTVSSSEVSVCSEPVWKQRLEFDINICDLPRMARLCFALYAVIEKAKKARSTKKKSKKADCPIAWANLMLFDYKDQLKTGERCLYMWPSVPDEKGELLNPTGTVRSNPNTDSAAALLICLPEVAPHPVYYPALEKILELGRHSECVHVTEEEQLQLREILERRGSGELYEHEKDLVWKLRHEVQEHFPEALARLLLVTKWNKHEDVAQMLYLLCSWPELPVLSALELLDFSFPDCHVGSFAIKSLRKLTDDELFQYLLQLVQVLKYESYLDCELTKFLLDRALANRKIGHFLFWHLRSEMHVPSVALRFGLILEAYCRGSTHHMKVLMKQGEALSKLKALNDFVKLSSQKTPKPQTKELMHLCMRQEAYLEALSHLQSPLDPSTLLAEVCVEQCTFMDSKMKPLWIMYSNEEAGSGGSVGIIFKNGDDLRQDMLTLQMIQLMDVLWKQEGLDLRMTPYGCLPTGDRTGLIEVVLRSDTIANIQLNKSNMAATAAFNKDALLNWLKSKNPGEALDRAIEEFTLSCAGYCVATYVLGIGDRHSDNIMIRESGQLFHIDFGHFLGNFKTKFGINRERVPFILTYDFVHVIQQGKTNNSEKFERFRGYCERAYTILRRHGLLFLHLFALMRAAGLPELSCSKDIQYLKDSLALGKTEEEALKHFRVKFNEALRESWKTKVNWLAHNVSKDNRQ

[7] = target: Serine/threonine-protein kinase mTOR (Homo sapiens, UniProt P42345)
mTORC1 = mTORC1 (Homo sapiens, UniProt P42345); format: protein-complex assay
clinical = conditions: human, in vivo
cells = format: cell-based; conditions: Homo sapiens
[8] = target: T3, Phosphatidylinositol 4,5-bisphosphate 3-kinase catalytic subunit alpha isoform; format: cell-based
[9] = target: T1, Phosphatidylinositol 4,5-bisphosphate 3-kinase catalytic subunit beta isoform; format: cell-based

T1 sequence (P42338 whole entry, canonical isoform): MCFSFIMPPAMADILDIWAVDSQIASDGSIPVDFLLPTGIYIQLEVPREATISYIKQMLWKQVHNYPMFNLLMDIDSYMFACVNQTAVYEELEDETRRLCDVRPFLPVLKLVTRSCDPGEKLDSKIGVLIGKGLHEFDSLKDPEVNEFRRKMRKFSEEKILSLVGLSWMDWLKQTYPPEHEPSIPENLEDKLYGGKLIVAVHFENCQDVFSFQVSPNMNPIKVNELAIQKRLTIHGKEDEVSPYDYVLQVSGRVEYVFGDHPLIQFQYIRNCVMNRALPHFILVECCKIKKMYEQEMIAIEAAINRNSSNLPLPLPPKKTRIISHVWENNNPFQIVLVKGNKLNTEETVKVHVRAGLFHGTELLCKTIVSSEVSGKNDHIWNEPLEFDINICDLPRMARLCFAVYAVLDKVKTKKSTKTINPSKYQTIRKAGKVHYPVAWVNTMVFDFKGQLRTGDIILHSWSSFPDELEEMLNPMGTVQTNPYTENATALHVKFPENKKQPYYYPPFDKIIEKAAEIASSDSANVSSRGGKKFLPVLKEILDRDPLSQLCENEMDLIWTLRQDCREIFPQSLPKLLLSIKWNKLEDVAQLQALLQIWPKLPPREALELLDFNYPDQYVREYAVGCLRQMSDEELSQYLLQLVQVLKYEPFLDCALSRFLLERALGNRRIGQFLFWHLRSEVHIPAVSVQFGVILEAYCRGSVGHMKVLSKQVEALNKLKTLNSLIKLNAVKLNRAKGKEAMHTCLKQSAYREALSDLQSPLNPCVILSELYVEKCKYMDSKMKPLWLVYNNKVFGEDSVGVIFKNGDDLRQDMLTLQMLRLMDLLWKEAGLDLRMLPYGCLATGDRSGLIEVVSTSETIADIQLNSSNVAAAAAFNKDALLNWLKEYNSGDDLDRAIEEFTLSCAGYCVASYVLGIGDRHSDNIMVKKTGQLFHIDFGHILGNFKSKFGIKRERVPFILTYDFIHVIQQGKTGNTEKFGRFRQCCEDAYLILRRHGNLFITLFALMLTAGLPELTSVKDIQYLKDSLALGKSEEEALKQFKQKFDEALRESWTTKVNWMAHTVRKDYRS
T2 sequence (P48736 whole entry, canonical isoform): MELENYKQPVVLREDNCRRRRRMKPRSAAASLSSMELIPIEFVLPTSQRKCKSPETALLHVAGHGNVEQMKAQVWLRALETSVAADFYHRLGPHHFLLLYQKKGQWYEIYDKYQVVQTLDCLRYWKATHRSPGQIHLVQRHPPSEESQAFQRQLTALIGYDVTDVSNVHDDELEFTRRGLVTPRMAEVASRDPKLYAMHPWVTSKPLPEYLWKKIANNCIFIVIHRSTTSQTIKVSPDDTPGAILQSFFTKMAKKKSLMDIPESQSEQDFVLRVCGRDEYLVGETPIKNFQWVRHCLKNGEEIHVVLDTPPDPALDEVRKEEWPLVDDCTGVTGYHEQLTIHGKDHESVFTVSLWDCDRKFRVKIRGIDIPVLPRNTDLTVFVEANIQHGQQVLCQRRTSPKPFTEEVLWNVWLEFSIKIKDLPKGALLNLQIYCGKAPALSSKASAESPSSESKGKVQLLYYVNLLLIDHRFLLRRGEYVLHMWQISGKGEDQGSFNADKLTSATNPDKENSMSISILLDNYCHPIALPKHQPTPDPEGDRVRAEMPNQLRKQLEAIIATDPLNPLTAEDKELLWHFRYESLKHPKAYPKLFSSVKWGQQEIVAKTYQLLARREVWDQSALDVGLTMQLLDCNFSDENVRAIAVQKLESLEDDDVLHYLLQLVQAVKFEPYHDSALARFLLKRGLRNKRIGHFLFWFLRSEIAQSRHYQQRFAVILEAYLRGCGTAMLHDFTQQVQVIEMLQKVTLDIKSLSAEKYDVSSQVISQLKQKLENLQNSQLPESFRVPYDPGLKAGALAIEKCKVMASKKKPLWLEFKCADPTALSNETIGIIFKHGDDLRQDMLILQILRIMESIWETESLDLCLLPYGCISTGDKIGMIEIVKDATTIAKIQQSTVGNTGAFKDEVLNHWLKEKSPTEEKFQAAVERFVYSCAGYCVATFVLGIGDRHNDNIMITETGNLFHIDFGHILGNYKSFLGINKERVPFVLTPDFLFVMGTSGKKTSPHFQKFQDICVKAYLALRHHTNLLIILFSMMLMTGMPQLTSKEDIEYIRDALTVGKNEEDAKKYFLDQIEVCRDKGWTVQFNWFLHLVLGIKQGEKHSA

SMILES: O=Cc1ccc(N2CCOCC2)cc1O
IC50 [1]: 2800 nM

SMILES: CN1CCOc2cc(/C=C3\SC(=O)NC3=O)ccc21
IC50 [2]: > 10000 nM

SMILES: Cc1cc(NCc2ccccc2C)c2nc(N3CCOCC3)cc(=O)n2c1
IC50 [1]: 110 nM

SMILES: N=C(N)NCCCC(NC(=O)CCC(=O)OC[N+]1(c2cc(=O)c3cccc(-c4ccccc4)c3o2)CCOCC1)C(=O)NCC(=O)NC(CC(=O)O)C(=O)NC(CO)C(=O)[O-] (stereo not drawn)
IC50 [3]: 357 nM
IC50 [4]: 1770 nM
IC50 [5]: 356 nM
IC50 [6]: 3230 nM
IC50 [7]: 1060 nM
IC50 [1]: 736 nM

SMILES: COc1c(OCCCN2CCOCC2)ccc2c1N=C(NC(=O)c1cnc(N)nc1)N1CCN=C21 [COPANLISIB]
IC50 (cells): < 1 nM

SMILES: Oc1ccc(/C=C/c2cc(O)cc(O)c2)cc1 [RESVERATROL]
IC50 [8]: 250 nM
IC50 [9]: 500 nM

Now from value to compound:

IC50 [1]: 130 nM
SMILES: Cc1cc(Oc2ccccc2C)c2[nH]c(N3CCOCC3)cc(=O)c2c1

IC50 [1]: 383 nM
SMILES: Cc1ccc(S(=O)(=O)Nc2nc3ccccc3nc2Nc2ccc3nsnc3c2)cc1

IC50 [3]: 150 nM
IC50 (mTORC1): 190 nM
SMILES: COc1cc(Nc2nc3ccccc3nc2NS(=O)(=O)c2ccc(NC(=O)c3ccc(C)c(OC)c3)cc2)cc(OC)c1

half-life (clinical): 6 h
SMILES: COc1ccc(-c2ccc3ncc4c(c3c2)n(-c2ccc(N3CCNCC3)c(C(F)(F)F)c2)c(=O)n4C)cn1 [BGT-226 FREE BASE]

IC50 [7]: > 10000 nM
SMILES: CC[C@H](Nc1ncnc2[nH]cnc12)c1nc2cccc(F)c2c(=O)n1-c1ccccc1 [IDELALISIB]
